Results taken from patent US5916774A, “D-aminoacylase” (Daicel Chemical Industries, Ltd., priority 1997, dated 1999).
Where two headings read alike, the source gives them in different places.

System: D-aminoacylase derived from Amycolatopsis orientalis IFO 12806
Test: Influences of various metallic salts and reagents on D-aminoacylase activity
Assay type: biochemical
Protocol: The enzyme activity was assayed according to TNBS method [Tokuyama, S., Hatano, K. and Takahashi, T., Biosci. Biotech. Biochem. 58, pp24 (1994)]. That is, a sample solution containing amino acid was added to 0.5 ml of the solution (C) (0.1M Na2 B4 O7), and brought up to a volume of 1.0 ml. To this mixture was added […] of 0.11M TNBS solution, and the resulting mixture was quickly mixed. Five min thereafter, absorption at 420 nm was measured.
In Table 5, the term "PCMB" means p-chloromercuribenzoic acid.

[1] = reagent 1 mM, no addition = 100
[2] = reagent 1 mM, pH 7.5, 30° C., 60 min, no addition 0.22
[3] = reagent 10 mM, no addition = 100
[4] = reagent 10 mM, pH 7.5, 30° C., 60 min, no addition 0.22
[5] = metallic salt 1 mM, no addition = 100
[6] = metallic salt 1 mM, pH 7.5, 30° C., 60 min, no addition 0.25
[7] = metallic salt 10 mM, no addition = 100
[8] = metallic salt 10 mM, pH 7.5, 30° C., 60 min, no addition 0.25

Row | Compound | Specific activity (%), concentration 1 mM [5] [%] | Methionine produced, concentration 1 mM [6] [mM] | Specific activity (%), concentration 10 mM [7] [%] | Methionine produced, concentration 10 mM [8] [mM] | other results
1 | CCN1C(=O)C=CC1=O [N-ethyl-maleimide, reference compound] |  |  |  |  | Specific activity (%), concentration 1 mM [1]: 45%; Methionine produced, concentration 1 mM [2]: 0.1 mM; Specific activity (%), concentration 10 mM [3]: 0%; Methionine produced, concentration 10 mM [4]: 0 mM
2 | [Cl-].[Cl-].[Mg+2] [Mg^2+ (MgCl2), MgCl2] | 128 | 0.32 | 92 | 0.32 | 
3 | [Cl][Mn][Cl] [Mn^2+ (MnCl2), MnCl2] | 96 | 0.24 | 0 | 0 | 
4 | O=C(O)c1cc[c]([Hg][Cl])cc1 [PCMB, p-chloromercuribenzoic acid, reference compound] |  |  |  |  | Effect on enzyme activity (concentration not given): inhibited; Specific activity (%), concentration 1 mM [1]: 0%; Methionine produced, concentration 1 mM [2]: 0 mM; Specific activity (%), concentration 10 mM [3]: 0%; Methionine produced, concentration 10 mM [4]: 0 mM
5 | [Cl][Hg][Cl] [Hg^2+ (HgCl2), HgCl2] | 0 | 0 | 0 | 0 | Effect on enzyme activity (concentration not given): inhibited
6 | O=C(O)CI [iodoactate, iodoacetate, reference compound] |  |  |  |  | Effect on enzyme activity: inhibited; Specific activity (%), concentration 1 mM: 64%; Specific activity (%), concentration 10 mM: 50%; Methionine produced, concentration 1 mM (pH 7.5): 0.14 mM; Methionine produced, concentration 10 mM (pH 7.5): 0.11 mM
7 | [Cl][Cu][Cl] [Cu^2+ (CuCl2), CuCl2] | 0 | 0 | 0 | 0 | Effect on enzyme activity (concentration not given): inhibited
8 | O=C(O)CN(CCN(CC(=O)O)CC(=O)O)CC(=O)O [EDTA.2Na, reference compound] |  |  |  |  | Effect on enzyme activity: inhibited; Specific activity (%), concentration 1 mM: 0%; Specific activity (%), concentration 10 mM: 0%; Methionine produced, concentration 1 mM (pH 7.5): 0 mM; Methionine produced, concentration 10 mM (pH 7.5): 0 mM
9 | [Ba+2].[Cl-].[Cl-] [Ba^2+ (BaCl2), BaCl2] |  | 0.19 | 176 | 0.44 | 
10 | OC(CS)C(O)CS (centres unmarked) [dothiothreito, reference compound] |  |  |  |  | Specific activity (%), concentration 1 mM [1]: 77%; Methionine produced, concentration 1 mM [2]: 0.17 mM; Specific activity (%), concentration 10 mM [3]: 68%; Methionine produced, concentration 10 mM [4]: 0.15 mM
11 | [Cl][Ni][Cl] [Ni^2+ (NiCl2), NiCl2] | 48 | 0.12 | 68 | 0.17 | 
12 | [Cl-].[Cl-].[Zn+2] [Zn^2+ (ZnCl2), ZnCl2] | 0 | 0 | 0 | 0 | 
13 | [Cl-].[K+] [K^+ (KCl), KCl] | 52 | 0.13 | 84 | 0.21 | 
